Assay results taken from article PMC7465469, “Inhibition of the Lysophosphatidylinositol Transporter ABCC1 Reduces Prostate Cancer Cell Growth and Sensitizes to Chemotherapy” (Cancers, 2020).

Target: T1, ABCC1 (Homo sapiens, UniProt P33527)
T1 construct: wild-type ABCC1 (pcDNA3-ABCC1) transiently expressed in HEK293T cells
Assay: Calcein-AM efflux, two-colour flow cytometry in ABCC1-transfected HEK293T cells
Assay type: cell-based

T1 sequence (P33527 whole entry): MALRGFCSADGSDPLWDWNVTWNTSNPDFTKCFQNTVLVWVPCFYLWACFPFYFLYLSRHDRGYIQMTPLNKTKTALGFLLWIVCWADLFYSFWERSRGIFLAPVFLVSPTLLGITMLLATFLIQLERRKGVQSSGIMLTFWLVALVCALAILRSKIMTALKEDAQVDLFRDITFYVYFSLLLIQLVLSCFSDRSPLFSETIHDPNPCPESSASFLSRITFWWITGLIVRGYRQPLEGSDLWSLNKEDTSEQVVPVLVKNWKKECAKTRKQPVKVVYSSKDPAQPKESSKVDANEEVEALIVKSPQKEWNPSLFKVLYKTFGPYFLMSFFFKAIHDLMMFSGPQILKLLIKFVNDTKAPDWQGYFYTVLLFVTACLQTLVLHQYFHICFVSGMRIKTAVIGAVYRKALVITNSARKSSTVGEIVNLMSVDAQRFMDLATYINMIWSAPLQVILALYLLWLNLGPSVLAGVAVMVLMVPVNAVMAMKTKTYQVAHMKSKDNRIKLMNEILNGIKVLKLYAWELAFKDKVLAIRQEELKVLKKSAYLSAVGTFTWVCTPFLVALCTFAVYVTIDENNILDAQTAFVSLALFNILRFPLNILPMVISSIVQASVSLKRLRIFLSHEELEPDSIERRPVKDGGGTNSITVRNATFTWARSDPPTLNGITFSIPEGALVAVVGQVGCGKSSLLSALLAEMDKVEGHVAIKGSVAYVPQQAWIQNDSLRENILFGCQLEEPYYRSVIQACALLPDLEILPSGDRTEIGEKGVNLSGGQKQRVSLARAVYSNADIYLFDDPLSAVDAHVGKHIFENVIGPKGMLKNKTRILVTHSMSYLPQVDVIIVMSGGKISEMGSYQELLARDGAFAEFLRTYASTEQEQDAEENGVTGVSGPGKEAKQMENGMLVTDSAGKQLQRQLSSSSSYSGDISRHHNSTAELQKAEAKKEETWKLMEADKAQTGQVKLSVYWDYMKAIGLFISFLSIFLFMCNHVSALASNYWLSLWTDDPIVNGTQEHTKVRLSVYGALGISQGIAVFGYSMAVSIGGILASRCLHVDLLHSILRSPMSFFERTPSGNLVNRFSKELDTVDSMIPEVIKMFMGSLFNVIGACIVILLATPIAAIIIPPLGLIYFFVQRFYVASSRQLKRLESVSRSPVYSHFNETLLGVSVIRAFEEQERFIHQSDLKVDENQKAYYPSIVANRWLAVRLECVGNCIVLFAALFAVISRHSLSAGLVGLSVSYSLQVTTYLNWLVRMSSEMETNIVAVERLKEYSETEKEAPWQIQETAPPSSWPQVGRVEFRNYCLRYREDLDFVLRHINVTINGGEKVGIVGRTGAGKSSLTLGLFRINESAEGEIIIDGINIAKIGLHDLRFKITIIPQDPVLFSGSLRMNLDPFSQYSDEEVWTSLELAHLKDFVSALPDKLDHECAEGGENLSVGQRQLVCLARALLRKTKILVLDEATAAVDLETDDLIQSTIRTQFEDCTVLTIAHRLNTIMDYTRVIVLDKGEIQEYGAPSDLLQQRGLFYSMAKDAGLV

For `CC1=C(CC(=O)O)c2cc(F)ccc2/C1=C\c1ccc([S+](C)[O-])cc1` (stereo not shown) [Sulindac], the IC50 was 106 µM.
